{"source": "patent US20080267939A1", "about": "“SYNERGISTIC ANTI-HYPERTENSIVE PHYTO-NUTRACEUTICAL COMPOSITION” (priority 2006, published 2008)", "origin": "cited, not measured here", "key": {"rabbit aortic rings": {"tested_on": "rabbit aortic rings", "settings": "pre-contracted rabbit aortic rings"}, "renal hypertensive dogs": {"tested_on": "renal hypertensive dogs", "settings": "chronic oral administration"}, "[1]": {"biological_target": "platelet activating factor (PAF) membrane receptors (Homo sapiens, UniProt P25105)", "sequence (P25105 whole entry)": "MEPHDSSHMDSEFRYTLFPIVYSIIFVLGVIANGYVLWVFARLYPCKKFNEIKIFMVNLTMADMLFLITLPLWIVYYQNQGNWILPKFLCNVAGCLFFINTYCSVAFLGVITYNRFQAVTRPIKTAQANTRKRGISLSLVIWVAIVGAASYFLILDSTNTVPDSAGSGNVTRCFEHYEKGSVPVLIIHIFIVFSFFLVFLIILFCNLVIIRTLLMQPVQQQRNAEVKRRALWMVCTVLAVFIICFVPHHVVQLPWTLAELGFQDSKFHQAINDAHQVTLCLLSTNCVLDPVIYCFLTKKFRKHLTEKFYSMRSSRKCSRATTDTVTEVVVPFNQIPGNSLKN"}, "[2]": {"tested_on": "aged diabetic Zucker fatty rats"}, "[3]": {"tested_on": "bacterial resistance mechanism (multidrug pump)", "settings": "in the presence of 5′-MHC"}, "rat aorta [4]": {"tested_on": "rat aorta"}, "[5]": {"biological_target": "T1, endothelial NO synthase (eNOS) (Homo sapiens, UniProt P29474)", "T1 sequence (P29474 1-1203)": "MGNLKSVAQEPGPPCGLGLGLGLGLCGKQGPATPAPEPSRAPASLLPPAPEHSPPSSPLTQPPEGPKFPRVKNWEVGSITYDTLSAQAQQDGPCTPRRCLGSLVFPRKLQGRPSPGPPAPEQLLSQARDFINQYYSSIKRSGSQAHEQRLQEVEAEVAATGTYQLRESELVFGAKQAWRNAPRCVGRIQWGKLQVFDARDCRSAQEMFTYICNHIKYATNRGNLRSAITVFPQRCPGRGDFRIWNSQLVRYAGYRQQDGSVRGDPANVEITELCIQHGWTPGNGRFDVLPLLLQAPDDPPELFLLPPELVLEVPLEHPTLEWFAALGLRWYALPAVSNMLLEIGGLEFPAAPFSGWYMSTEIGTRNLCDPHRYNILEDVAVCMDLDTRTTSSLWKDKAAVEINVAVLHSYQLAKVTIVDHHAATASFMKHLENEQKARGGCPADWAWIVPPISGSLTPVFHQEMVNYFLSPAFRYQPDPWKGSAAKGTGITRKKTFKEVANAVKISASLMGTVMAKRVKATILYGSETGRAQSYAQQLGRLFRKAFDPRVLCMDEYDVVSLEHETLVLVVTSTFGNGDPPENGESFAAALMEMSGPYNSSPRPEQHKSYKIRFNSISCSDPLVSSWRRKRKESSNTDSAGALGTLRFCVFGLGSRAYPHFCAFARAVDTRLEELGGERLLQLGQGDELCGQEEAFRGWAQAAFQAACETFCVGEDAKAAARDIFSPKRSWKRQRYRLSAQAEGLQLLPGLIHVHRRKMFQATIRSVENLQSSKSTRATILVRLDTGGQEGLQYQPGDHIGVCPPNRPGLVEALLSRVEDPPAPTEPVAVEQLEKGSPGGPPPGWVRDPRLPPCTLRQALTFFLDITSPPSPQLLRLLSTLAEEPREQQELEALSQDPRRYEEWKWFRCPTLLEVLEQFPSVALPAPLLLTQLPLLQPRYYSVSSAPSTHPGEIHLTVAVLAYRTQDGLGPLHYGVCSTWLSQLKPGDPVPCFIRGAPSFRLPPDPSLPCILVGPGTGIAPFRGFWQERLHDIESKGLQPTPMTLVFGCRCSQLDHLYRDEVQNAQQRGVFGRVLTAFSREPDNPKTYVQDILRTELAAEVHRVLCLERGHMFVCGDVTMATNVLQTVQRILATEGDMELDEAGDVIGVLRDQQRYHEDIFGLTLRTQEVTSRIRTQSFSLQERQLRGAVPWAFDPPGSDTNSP"}, "blood pressure [6]": {"tested_on": "blood pressure", "settings": "lower doses"}, "[7]": {"tested_on": "patients having class III or IV cardiomiopathy", "settings": "group A, during CoQ10 treatment, oral"}, "blood pressure [8]": {"tested_on": "blood pressure", "settings": "in vivo"}, "[9]": {"tested_on": "spontaneously hypertensive rats"}, "[10]": {"tested_on": "vascular smooth muscle cells"}, "blood pressure [11]": {"tested_on": "blood pressure", "settings": "clinically"}, "[12]": {"tested_on": "vascular smooth muscle cells", "remark": "listed apart in the source"}, "L-type calcium channel [13]": {"biological_target": "T2, L-type calcium channel (Rattus norvegicus, UniProt P22002)", "T2 construct": "Effect of puerarin on L-type calcium channel in isolated rat ventricular myocytes; endogenous in cells; host or cells: isolated rat ventricular myocytes", "T2 sequence (P22002 whole entry, other chains not shown)": "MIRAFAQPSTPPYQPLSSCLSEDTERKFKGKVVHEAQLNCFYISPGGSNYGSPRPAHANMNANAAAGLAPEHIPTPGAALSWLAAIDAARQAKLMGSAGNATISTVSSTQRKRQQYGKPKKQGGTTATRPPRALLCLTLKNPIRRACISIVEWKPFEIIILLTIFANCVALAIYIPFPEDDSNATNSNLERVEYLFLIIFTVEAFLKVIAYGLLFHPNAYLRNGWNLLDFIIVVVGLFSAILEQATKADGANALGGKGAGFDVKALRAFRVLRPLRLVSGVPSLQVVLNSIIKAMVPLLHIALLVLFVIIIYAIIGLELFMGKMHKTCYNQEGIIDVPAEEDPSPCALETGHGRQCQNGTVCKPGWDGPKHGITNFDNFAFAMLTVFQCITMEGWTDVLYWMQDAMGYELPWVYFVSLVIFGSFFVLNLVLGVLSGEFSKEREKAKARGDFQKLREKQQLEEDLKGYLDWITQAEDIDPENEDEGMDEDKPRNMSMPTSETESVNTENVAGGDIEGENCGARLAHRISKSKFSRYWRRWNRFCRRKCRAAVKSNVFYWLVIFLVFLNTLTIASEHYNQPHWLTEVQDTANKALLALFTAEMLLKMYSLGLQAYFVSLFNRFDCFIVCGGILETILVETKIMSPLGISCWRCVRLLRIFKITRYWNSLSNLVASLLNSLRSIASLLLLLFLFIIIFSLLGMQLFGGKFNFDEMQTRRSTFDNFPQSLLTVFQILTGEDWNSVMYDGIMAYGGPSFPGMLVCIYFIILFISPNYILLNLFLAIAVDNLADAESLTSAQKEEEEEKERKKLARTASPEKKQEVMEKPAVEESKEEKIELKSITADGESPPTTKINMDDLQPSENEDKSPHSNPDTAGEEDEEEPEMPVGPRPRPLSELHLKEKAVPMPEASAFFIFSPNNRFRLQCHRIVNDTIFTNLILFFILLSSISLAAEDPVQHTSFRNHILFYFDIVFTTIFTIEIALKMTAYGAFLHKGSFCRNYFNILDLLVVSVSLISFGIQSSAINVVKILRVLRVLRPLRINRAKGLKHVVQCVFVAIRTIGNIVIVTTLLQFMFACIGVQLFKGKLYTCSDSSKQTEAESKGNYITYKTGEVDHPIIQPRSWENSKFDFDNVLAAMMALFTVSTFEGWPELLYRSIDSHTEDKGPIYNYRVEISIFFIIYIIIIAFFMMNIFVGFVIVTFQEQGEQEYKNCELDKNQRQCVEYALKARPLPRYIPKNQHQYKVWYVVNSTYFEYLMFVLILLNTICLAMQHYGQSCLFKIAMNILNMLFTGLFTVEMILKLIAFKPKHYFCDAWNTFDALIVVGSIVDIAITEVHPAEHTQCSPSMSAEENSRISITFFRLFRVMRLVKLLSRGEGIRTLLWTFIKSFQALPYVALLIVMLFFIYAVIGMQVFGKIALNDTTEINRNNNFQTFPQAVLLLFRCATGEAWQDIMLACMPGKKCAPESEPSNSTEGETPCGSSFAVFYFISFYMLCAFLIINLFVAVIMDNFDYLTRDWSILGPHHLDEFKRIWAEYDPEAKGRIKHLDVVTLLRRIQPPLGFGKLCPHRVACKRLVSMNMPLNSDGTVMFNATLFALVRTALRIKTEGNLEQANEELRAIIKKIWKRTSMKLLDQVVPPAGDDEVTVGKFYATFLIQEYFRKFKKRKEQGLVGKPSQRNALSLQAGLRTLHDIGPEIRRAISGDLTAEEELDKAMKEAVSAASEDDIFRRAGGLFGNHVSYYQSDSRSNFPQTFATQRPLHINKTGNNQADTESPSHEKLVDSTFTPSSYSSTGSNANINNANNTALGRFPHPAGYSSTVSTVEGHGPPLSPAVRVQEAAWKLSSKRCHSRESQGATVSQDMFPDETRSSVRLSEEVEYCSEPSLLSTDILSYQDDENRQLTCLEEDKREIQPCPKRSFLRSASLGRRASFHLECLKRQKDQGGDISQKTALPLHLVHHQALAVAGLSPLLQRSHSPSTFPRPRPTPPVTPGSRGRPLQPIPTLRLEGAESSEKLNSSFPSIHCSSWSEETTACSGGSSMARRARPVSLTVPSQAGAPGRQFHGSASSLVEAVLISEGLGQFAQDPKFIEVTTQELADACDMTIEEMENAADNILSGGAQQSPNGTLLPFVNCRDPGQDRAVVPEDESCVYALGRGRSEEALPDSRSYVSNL", "T2 sequence (P54290 25-944 partner limits assumed, other chains not shown)": "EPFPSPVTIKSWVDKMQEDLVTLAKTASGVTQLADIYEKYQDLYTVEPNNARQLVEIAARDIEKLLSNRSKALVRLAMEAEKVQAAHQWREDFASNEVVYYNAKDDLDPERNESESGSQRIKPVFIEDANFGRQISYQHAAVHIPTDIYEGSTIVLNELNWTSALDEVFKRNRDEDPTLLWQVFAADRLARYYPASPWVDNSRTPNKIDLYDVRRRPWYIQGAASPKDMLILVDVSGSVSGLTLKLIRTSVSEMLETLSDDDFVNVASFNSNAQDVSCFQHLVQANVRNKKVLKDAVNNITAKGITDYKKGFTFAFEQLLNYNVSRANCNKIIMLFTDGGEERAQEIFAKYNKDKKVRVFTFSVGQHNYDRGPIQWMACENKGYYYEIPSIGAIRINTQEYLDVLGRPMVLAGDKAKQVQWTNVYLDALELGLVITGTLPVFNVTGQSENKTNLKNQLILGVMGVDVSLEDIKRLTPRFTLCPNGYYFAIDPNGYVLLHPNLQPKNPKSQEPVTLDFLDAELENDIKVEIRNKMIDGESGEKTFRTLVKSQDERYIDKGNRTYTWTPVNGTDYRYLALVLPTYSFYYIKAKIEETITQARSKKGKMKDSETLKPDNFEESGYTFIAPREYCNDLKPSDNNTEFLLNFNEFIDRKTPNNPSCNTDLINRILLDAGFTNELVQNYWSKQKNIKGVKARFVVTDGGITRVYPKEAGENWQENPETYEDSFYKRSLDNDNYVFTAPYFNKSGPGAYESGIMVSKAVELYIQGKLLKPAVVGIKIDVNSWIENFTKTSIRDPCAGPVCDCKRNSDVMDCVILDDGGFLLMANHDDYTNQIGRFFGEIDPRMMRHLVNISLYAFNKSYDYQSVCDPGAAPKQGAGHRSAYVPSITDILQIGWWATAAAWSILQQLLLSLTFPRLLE", "T2 sequence (P54290 945-1091 partner limits assumed, other chains not shown)": "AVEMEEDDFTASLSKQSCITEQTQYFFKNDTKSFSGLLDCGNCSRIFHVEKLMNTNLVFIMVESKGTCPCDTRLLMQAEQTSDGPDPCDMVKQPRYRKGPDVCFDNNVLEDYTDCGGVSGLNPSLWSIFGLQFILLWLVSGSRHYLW", "settings": "rat ventricular myocytes"}, "rat aorta [14]": {"tested_on": "rat aorta", "settings": "endothelium-intact and endothelium-denuded rat aorta"}, "L-type calcium channel [15]": {"biological_target": "T3, L-type calcium channel (Cavia porcellus, UniProt O35505)", "T3 construct": "calcium channel in isolated guinea pig ventricular myocytes; endogenous in cells; host or cells: isolated guinea pig ventricular myocytes", "settings": "isolated guinea pig ventricular myocytes"}}, "data": [{"molecule": "O=C(O)CC[N+](=O)[O-]", "note": "[NPA, 3-Nitropropionic acid]", "values": [{"measurement": "relaxation of aortic rings", "setting": "rabbit aortic rings", "result": "dose-dependent relaxation"}, {"measurement": "blood pressure", "setting": "renal hypertensive dogs", "result": "decrease in blood pressure"}]}, {"molecule": "CC1C(=O)OC2C(O)C34C5CC(C(C)(C)C)C36C(OC(=O)C6O)OC4(C(=O)O5)C12O", "note": "(centres unmarked) [Ginkgolide B]", "values": [{"measurement": "inhibition of platelet activating factor (PAF)", "setting": "[1]", "result": "powerful inhibitor"}]}, {"molecule": "niacin-bound chromium", "values": [{"measurement": "blood pressures compared to control", "setting": "[2]", "result": "significantly lowered blood pressures"}]}, {"molecule": "COc1cc([C@H]2Oc3cc(-c4cc(=O)c5c(O)cc(O)cc5o4)cc(OC)c3O[C@@H]2CO)ccc1O", "note": "(racemic) [5′-MHC, 5′-methoxyhydnocarpin]", "values": [{"measurement": "accumulation of berberine in the cells", "setting": "[3]", "result": "strong increase"}]}, {"molecule": "Cycloleonuripeptide E", "values": [{"measurement": "vasorelaxant effects", "setting": "rat aorta [4]", "result": "moderate vasorelaxant effects"}]}, {"molecule": "CC(C)=CCC[C@](C)(O[C@@H]1O[C@H](CO)[C@@H](O)[C@H](O)[C@H]1O)[C@H]1CC[C@]2(C)[C@@H]1[C@H](O)C[C@@H]1[C@@]3(C)CC[C@H](O)C(C)(C)[C@@H]3[C@@H](O[C@@H]3O[C@H](CO)[C@@H](O)[C@H](O)[C@H]3O[C@@H]3O[C@@H](C)[C@H](O)[C@@H](O)[C@H]3O)C[C@]12C", "note": "[Ginsenoside Re]", "values": [{"measurement": "eNOS activation / NO release", "setting": "[5]", "result": "activate endothelial NO synthase (eNOS) to release NO"}]}, {"molecule": "cycloleonuripeptide F", "values": [{"measurement": "vasorelaxant effects", "setting": "rat aorta [4]", "result": "moderate vasorelaxant effects"}]}, {"molecule": "CCCCC/C=C/C(=O)CCc1ccc(O)c(OC)c1", "note": "[(6)-shogaol]", "values": [{"measurement": "response on the blood pressure", "setting": "blood pressure [6]", "result": "produced depressor response"}]}, {"molecule": "COC1=C(OC)C(=O)C(C/C=C(\\C)CC/C=C(\\C)CC/C=C(\\C)CC/C=C(\\C)CC/C=C(\\C)CC/C=C(\\C)CC/C=C(\\C)CC/C=C(\\C)CC/C=C(\\C)CCC=C(C)C)=C(C)C1=O", "note": "[CoQ10, Coenzyme Q10]", "values": [{"measurement": "cardiac function", "setting": "[7]", "result": "significant increases in cardiac function"}]}, {"molecule": "CCCCC[C@H](O)CC(=O)CCc1ccc(O)c(OC)c1", "note": "[(6)-gingerol]", "values": [{"measurement": "response on the blood pressure", "setting": "blood pressure [6]", "result": "produced depressor response"}]}, {"molecule": "O=C(O)CC(O)(C(=O)O)C(O)C(=O)O", "note": "(single isomer, unassigned; (-)) [(−)-hydroxycitric acid (HCA), (−)-hydroxycitric acid]", "values": [{"measurement": "blood pressures compared to control", "setting": "[2]", "result": "significantly lowered blood pressures"}]}, {"molecule": "C[C@@H]1O[C@@H](O[C@@H]2[C@@H](O)[C@H](OCCc3ccc(O)c(O)c3)O[C@H](CO)[C@H]2OC(=O)/C=C/c2ccc(O)c(O)c2)[C@H](O[C@@H]2OC[C@@H](O)[C@@H](O)[C@@H]2O)[C@H](O)[C@H]1O", "note": "[Lavandulifolioside]", "values": [{"measurement": "blood pressure", "setting": "blood pressure [8]", "result": "decreases blood pressure"}]}, {"molecule": "COc1cc(/C=C/C(=O)O)ccc1O", "note": "[ferulic acid]", "values": [{"measurement": "carotid arterial pressure", "setting": "[9]; intravenous injection, anesthetized hypertensive rats", "result": "dose dependently reduced"}, {"measurement": "systolic blood pressure", "setting": "[9]; oral administration, hypertensive rats", "result": "significantly decreased"}]}, {"molecule": "CCC/C=C1\\OC(=O)C2=C1CCC=C2", "note": "[ligustilide]", "values": [{"measurement": "vascular smooth muscle cells proliferation and cell cycle progression", "setting": "[10]", "result": "significantly inhibited"}]}, {"molecule": "O=c1c(-c2ccc(O)cc2)coc2c([C@@H]3O[C@H](CO)[C@@H](O)[C@H](O)[C@H]3O)c(O)ccc12", "note": "[Puerarin, puerarin]", "values": [{"measurement": "decrease of blood pressure", "setting": "laboratory animals", "result": 15, "unit": "%"}, {"measurement": "systolic and diastolic blood pressure", "setting": "blood pressure [11]", "result": "reduces both systolic and diastolic blood pressure"}, {"measurement": "NO concentration and blood pressure", "setting": "rats with pre-eclampsia", "result": "elevate the level of NO concentration and decrease blood pressure"}, {"measurement": "proliferation and DNA synthesis of vascular smooth muscle cells", "setting": "[12]", "result": "suppress"}, {"measurement": "L-type calcium current", "setting": "L-type calcium channel [13]", "result": "inhibit L-type calcium current"}, {"measurement": "contractions induced by phenylephrine", "setting": "rat aorta [14]", "result": "completely relaxed"}, {"measurement": "effect on L-type calcium channel", "setting": "L-type calcium channel [15]", "result": "blocking effect on L-type calcium channel in a concentration dependent manner"}]}]}
